Publication doi:10.1101/2021.11.05.467508v1, “Biochemical analysis of deacetylase activity of rice sirtuin OsSRT1, a class IV member in plants” (biorxiv, 2021)
Where two headings read alike, the source gives them in different places.

Assays:
OsSRT1 (FL) [1] = target: T1, OsSRT1 (FL) (Oryza sativa, UniProt B8ARK7); experiment: dot blot deacetylation assay, H3K9Ac; format: biochemical
T1 construct: gene SRT1; full length 1-483, cloned from rice leaf cDNA into pET30a, His-tagged, monomer by SEC
T1 sequence (B8ARK7 1-483): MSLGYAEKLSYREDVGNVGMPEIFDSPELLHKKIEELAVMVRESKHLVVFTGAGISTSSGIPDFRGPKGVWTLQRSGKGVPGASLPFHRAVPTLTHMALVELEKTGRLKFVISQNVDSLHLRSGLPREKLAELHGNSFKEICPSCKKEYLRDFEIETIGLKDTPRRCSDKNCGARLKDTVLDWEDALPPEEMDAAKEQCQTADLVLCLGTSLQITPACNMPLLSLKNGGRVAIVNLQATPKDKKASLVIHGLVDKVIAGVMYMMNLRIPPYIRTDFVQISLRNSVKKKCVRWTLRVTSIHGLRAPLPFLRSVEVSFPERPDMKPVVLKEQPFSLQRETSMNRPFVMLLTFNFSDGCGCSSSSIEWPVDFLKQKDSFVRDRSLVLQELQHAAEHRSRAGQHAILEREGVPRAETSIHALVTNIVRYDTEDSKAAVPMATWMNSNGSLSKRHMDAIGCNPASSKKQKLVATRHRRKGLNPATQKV

OsSRT1 (FL) [2] = target: T1, OsSRT1 (FL); experiment: dot blot deacetylation assay, H3K9Ac; format: biochemical; remark: listed apart in the source

SMILES	IC50 (OsSRT1 (FL) [1]) [µM]	further results
CCCC(=O)O [sodium butyrate]	98 ± 15	–
NC(=O)c1cccnc1 [NAM]	147 ± 21	–
Oc1ccc(/C=C/c2cc(O)cc(O)c2)cc1 [resveratrol]	–	EC50 (OsSRT1 (FL) [2]): 236 ± 12 µM
Nc1ncnc2c1ncn2[C@@H]1O[C@H](COP(=O)(O)OP(=O)(O)OC[C@H]2OC(O)[C@H](O)[C@@H]2O)[C@@H](O)[C@H]1O (stereo partly shown) [ADP-ribose]	–	IC50 (OsSRT1 (FL) [1]; H3K9Ac deacetylation, product inhibition): 25 ± 2 µM
